pIC50: −log10 of the molar value.
target: recombinant human Nav1.7 (Homo sapiens (Human), UniProt Q15858); assay: FRET-based membrane potential assay, recombinant human sodium channel Nav1.7; format: cell-based; settings: HEK293 cells stably expressing recombinant human Nav1.7; veratridine + scorpion venom depolarization; read-out: FRET-Membrane Potential Nav1.7 IC50
Outline: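 Channel activation used veratridine at its EC80, set by a dilution curve each experiment, together with Leiurus scorpion venom, added 3 min after compound. Membrane-potential ratio signals from FLIPR Tetra in HEPES-buffered HBSS were fitted to a four-parameter Hill equation for percent inhibition and IC50.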

Sequence of recombinant human Nav1.7 (Q15858 whole entry): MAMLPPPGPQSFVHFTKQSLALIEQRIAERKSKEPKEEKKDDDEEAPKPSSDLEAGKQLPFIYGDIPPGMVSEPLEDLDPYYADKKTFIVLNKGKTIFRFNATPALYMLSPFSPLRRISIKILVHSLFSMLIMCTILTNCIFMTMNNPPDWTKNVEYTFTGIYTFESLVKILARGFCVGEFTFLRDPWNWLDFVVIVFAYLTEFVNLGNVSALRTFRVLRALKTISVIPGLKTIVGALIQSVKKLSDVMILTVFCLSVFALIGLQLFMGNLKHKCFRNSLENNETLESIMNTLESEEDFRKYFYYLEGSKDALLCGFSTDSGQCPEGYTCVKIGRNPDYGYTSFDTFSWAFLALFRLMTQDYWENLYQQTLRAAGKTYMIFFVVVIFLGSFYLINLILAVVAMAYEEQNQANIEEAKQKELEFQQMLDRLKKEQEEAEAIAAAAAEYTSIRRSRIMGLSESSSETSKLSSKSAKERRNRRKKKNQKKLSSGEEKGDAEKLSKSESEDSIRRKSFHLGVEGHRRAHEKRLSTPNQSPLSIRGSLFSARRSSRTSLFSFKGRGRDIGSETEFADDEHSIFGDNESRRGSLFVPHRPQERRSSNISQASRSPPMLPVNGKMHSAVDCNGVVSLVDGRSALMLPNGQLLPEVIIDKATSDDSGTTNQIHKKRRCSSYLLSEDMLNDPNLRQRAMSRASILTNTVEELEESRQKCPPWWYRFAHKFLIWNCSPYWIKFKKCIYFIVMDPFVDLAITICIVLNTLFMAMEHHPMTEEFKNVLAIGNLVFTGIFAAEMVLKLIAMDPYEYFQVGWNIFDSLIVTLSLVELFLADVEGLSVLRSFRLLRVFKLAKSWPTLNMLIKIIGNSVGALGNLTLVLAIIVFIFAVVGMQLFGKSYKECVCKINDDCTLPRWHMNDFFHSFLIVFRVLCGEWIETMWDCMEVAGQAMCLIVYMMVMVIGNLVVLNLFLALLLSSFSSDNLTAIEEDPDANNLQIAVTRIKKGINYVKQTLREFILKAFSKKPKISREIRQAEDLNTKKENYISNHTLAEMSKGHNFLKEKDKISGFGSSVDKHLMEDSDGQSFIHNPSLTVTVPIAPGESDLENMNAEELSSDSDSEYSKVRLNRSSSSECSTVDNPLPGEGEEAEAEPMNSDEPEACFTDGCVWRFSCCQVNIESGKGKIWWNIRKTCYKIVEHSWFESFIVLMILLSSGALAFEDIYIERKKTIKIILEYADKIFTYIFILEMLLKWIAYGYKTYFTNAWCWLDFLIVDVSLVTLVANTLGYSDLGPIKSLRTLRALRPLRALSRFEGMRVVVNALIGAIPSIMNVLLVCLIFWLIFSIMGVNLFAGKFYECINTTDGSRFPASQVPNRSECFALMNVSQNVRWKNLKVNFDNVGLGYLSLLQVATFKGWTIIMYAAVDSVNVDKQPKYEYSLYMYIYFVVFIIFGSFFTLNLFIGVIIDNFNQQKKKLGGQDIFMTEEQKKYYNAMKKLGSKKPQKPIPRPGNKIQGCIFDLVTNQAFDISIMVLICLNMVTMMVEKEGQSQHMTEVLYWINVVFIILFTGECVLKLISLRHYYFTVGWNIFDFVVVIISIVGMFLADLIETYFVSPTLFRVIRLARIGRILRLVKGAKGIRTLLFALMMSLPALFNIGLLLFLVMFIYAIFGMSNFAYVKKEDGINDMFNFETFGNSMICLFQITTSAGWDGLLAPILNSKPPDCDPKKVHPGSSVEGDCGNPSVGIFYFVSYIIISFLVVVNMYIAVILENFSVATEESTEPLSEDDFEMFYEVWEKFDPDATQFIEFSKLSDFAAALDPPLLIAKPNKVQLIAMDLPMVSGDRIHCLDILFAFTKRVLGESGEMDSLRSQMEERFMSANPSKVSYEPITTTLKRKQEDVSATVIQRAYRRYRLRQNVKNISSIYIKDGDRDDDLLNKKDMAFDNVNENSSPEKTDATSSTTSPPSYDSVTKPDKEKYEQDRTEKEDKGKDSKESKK

Row | SMILES | pIC50
1 | COC1CN(C(=O)CNC(=O)c2ccc3cc(Oc4ccc(C(F)(F)F)cn4)ccc3n2)C1 [Example 569, N-[2-(3-methoxyazetidin-1-yl)-2-oxoethyl]-6-{[5-(trifluoromethyl)pyridin-2-yl]oxy}quinoline-2-carboxamide] | 5.92
2 | O=C(NCC1(O)CC1)c1ccc2cc(Oc3ccc(C(F)(F)F)cn3)ccc2n1 [Example 369, N-[(1-hydroxycyclopropyl)methyl]-6-{[5-(trifluoromethyl)pyridin-2-yl]oxy}quinoline-2-carboxamide] | 4.82
3 | O=C1CCN(C(=O)c2ccc3cc(Oc4ccc(C(F)(F)F)cn4)ccc3n2)CC1 [Example 375, 1-[(6-{[5-(trifluoromethyl)pyridin-2-yl]oxy}quinolin-2-yl)carbonyl]piperidin-4-one] | 4.88
4 | CCN1CC(NC(=O)c2ccc3cc(Oc4ccc(C(F)(F)F)nc4)ccc3n2)CC1=O (stereo not drawn) [Example 523, N-(1-ethyl-5-oxopyrrolidin-3-yl)-6-{[6-(trifluoromethyl)pyridin-3-yl]oxy}quinoline-2-carboxamide] | 6.45
5 | N#Cc1ccc(Oc2ccc3nc(C(=O)NCc4cccs4)ccc3c2)cc1 [Example 92, 6-(4-cyanophenoxy)-N-(2-thienylmethyl)quinoline-2-carboxamide] | 5.01
6 | O=C(c1ccc2cc(Oc3ccc(C(F)(F)F)cn3)ccc2n1)N1CCN(C2COC2)CC1 [Example 252, [4-(oxetan-3-yl)piperazin-1-yl](6-{[5-(trifluoromethyl)pyridin-2-yl]oxy}quinolin-2-yl)methanone] | < 4.70
7 | O=C(c1ccc2cc(Oc3ccc(C(F)(F)F)cn3)ccc2n1)N1CCC(F)(COc2ccncc2)C1 (stereo not drawn) [Example 489, {3-fluoro-3-[(pyridin-4-yloxy)methyl]pyrrolidin-1-yl}(6-{[5-(trifluoromethyl)pyridin-2-yl]oxy}quinolin-2-yl)methanone] | 5.96
8 | C[C@@H]1N(C(=O)c2ccc3cc(Oc4ccc(C(F)(F)F)cn4)ccc3n2)CC1(C)C [Example 205, (6-{[5-(trifluoromethyl)pyridin-2-yl]oxy}quinolin-2-yl)[(2S)-2,3,3-trimethylazetidin-1-yl]methanone] | 5.50
9 | CC1(Oc2ccccc2)CN(C(=O)c2ccc3cc(Oc4ccc(C(F)(F)F)cn4)ccc3n2)C1 [Example 200, (3-methyl-3-phenoxyazetidin-1-yl)(6-{[5-(trifluoromethyl)pyridin-2-yl]oxy}quinolin-2-yl)methanone] | < 4.70
10 | O=C1CN(C(=O)c2ccc3cc(Oc4ccc(C(F)(F)F)cn4)ccc3n2)CCCN1 [Example 343, 4-[(6-{[5-(trifluoromethyl)pyridin-2-yl]oxy}quinolin-2-yl)carbonyl]-1,4-diazepan-2-one] | < 4.70
11 | N#Cc1ccc(Oc2ccc3nc(C(=O)N4CCOCC4)ccc3c2)cc1 [Example 83, 4-{[2-(morpholin-4-ylcarbonyl)quinolin-6-yl]oxy}benzonitrile] | < 4.70
12 | O=C(NCC(=O)N1C[C@H](O)[C@@H](O)C1)c1ccc2cc(Oc3ccc(C(F)(F)F)cn3)ccc2n1 [Example 562, N-{2-[(3S,4S)-3,4-dihydroxypyrrolidin-1-yl]-2-oxoethyl}-6-{[5-(trifluoromethyl)pyridin-2-yl]oxy}quinoline-2-carboxamide] | < 4.70
13 | O=C(c1ccc2cc(Oc3ccc(C(F)(F)F)cn3)ccc2n1)N1CC[C@@H]2CN[C@@H]2C1 [Example 213, (1S,6R)-3,8-diazabicyclo[4.2.0]oct-3-yl(6-{[5-(trifluoromethyl)pyridin-2-yl]oxy}quinolin-2-yl)methanone] | 5.03
14 | NC(=O)c1ccc2cc(Oc3ccc(C(F)(F)F)cn3)ccc2n1 [Example 210, 6-{[5-(trifluoromethyl)pyridin-2-yl]oxy}quinoline-2-carboxamide] | < 4.70
15 | O=C(NCC(=O)N1CCCCC1)c1ccc2cc(Oc3ccc(C(F)(F)F)nc3)ccc2n1 [Example 518, N-[2-oxo-2-(piperidin-1-yl)ethyl]-6-{[6-(trifluoromethyl)pyridin-3-yl]oxy}quinoline-2-carboxamide] | 6.00
16 | O=C(c1ccc2cc(Oc3ccc(C(F)(F)F)cn3)ccc2n1)N1CCC2(CC1)OCCO2 [Example 240, 1,4-dioxa-8-azaspiro[4.5]dec-8-yl(6-{[5-(trifluoromethyl)pyridin-2-yl]oxy}quinolin-2-yl)methanone] | 5.70
17 | O=C(c1ccc2cc(Oc3ccc(C(F)(F)F)cn3)ccc2n1)N1CCC(F)(COc2cccnc2)C1 (stereo not drawn) [Example 490, {3-fluoro-3-[(pyridin-3-yloxy)methyl]pyrrolidin-1-yl}(6-{[5-(trifluoromethyl)pyridin-2-yl]oxy}quinolin-2-yl)methanone] | 5.85
18 | N#Cc1ccc(Oc2ccc3nc(C(=O)N[C@H]4CCOC4=O)ccc3c2)cc1 [Example 90, 6-(4-cyanophenoxy)-N-[(3S)-2-oxotetrahydrofuran-3-yl]quinoline-2-carboxamide] | 6.43
19 | CN1CCC(NC(=O)c2ccc3cc(Oc4ccc(C#N)cc4)ccc3n2)C1=O (stereo not drawn) [Example 143, 6-(4-cyanophenoxy)-N-(1-methyl-2-oxopyrrolidin-3-yl)quinoline-2-carboxamide] | 5.97
20 | O=C(NCC(=O)N1CCCCC1)c1ccc2cc(Oc3ccc(C(F)(F)F)cn3)ccc2n1 [Example 447, N-[2-oxo-2-(piperidin-1-yl)ethyl]-6-{[5-(trifluoromethyl)pyridin-2-yl]oxy}quinoline-2-carboxamide] | 6.16
21 | Cc1ccc(CNC(=O)c2ccc3cc(Oc4ccc(C#N)cc4)ccc3n2)o1 [Example 99, 6-(4-cyanophenoxy)-N-[(5-methyl-2-furyl)methyl]quinoline-2-carboxamide] | 5.30
22 | O=C(c1ccc2cc(Oc3ccc(C(F)(F)F)cn3)ccc2n1)N1C[C@@H](F)C[C@@H]1CO [Example 495, [(2R,4S)-4-fluoro-2-(hydroxymethyl)pyrrolidin-1-yl](6-{[5-(trifluoromethyl)pyridin-2-yl]oxy}quinolin-2-yl)methanone] | 5.77
23 | CC1[C@@H](O)[C@@H](O)C(C)N1C(=O)c1ccc2cc(Oc3ccc(C(F)(F)F)cn3)ccc2n1 (mixture of isomers) [Example 323, rac-[(3R,4S)-3,4-dihydroxy-2,5-dimethylpyrrolidin-1-yl](6-{[5-(trifluoromethyl)pyridin-2-yl]oxy}quinolin-2-yl)methanone] | < 4.70
24 | O=C(c1ccc2cc(Oc3ccc(C(F)F)cn3)ccc2n1)N1CCN[C@H](CO)C1 [Example 585, (6-{[5-(difluoromethyl)pyridin-2-yl]oxy}quinolin-2-yl) [(3S)-3-(hydroxymethyl)piperazin-1-yl]methanone] | < 4.70
25 | O=C(NC1CC(F)(F)C1)c1ccc2cc(Oc3ccc(C(F)(F)F)nc3)ccc2n1 [Example 555, N-(3,3-difluorocyclobutyl)-6-{[6-(trifluoromethyl)pyridin-3-yl]oxy}quinoline-2-carboxamide] | 5.57
26 | O=C1CCC(NC(=O)c2ccc3cc(Oc4ccc(C(F)(F)F)cn4)ccc3n2)CN1 (stereo not drawn) [Example 416, N-(6-oxopiperidin-3-yl)-6-{[5-(trifluoromethyl)pyridin-2-yl]oxy}quinoline-2-carboxamide] | 6.15
27 | N#Cc1ccc(Oc2ccc3nc(C(=O)N[C@@H]4CCOc5ccc(F)cc54)ccc3c2)cc1 [Example 139, 6-(4-cyanophenoxy)-N-[(4R)-6-fluoro-3,4-dihydro-2H-chromen-4-yl]quinoline-2-carboxamide] | < 4.70
28 | O=C(c1ccc2cc(Oc3ccc(C(F)(F)F)cn3)ccc2n1)N1CCN(c2ccc(Cl)cn2)CC1 [Example 272, [4-(5-chloropyridin-2-yl)piperazin-1-yl](6-{[5-(trifluoromethyl)pyridin-2-yl]oxy}quinolin-2-yl)methanone] | 5.52
29 | CN1CC(NC(=O)c2ccc3cc(Oc4ccc(C(F)(F)F)nc4)ccc3n2)CC1=O (stereo not drawn) [Example 519, N-(1-methyl-5-oxopyrrolidin-3-yl)-6-{[6-(trifluoromethyl)pyridin-3-yl]oxy}quinoline-2-carboxamide] | 5.94

same assay, conditions: read-out: FRET-Membrane Potential Nav1.7 IC50

Row | SMILES | pIC50
30 | O=C(NCC(=O)N1CC[C@H](O)C1)c1ccc2cc(Oc3ccc(C(F)(F)F)cn3)ccc2n1 [Example 560, N-{2-[(3S)-3-hydroxypyrrolidin-1-yl]-2-oxoethyl}-6-{[5-(trifluoromethyl)pyridin-2-yl]oxy}quinoline-2-carboxamide] | 5.54
31 | O=C(NCC(=O)N1CC(O)C1)c1ccc2cc(Oc3ccc(C(F)(F)F)cn3)ccc2n1 [Example 566, N-[2-(3-hydroxyazetidin-1-yl)-2-oxoethyl]-6-{[5-(trifluoromethyl)pyridin-2-yl]oxy}quinoline-2-carboxamide] | 5.63
32 | O=C(c1ccc2cc(Oc3cnc(C(F)(F)F)cn3)ccc2n1)N1CCNCC1 [Example 245, piperazin-1-yl(6-{[5-(trifluoromethyl)pyrazin-2-yl]oxy}quinolin-2-yl)methanone] | 5.33
33 | O=C(NCCN1CCCCC1)c1ccc2cc(Oc3ccccn3)ccc2n1 [Example 79, N-[2-(piperidin-1-yl)ethyl]-6-(pyridin-2-yloxy)quinoline-2-carboxamide] | < 4.70
34 | CON=C1CCN(C(=O)c2ccc3cc(Oc4ccc(C(F)(F)F)cn4)ccc3n2)CC1 [Example 353, [4-(methoxyimino)piperidin-1-yl](6-{[5-(trifluoromethyl)pyridin-2-yl]oxy}quinolin-2-yl)methanone] | 5.44
35 | O=C(NCCC(=O)N1CCCCC1)c1ccc2cc(Oc3ccc(C(F)(F)F)cn3)ccc2n1 [Example 449, N-[3-oxo-3-(piperidin-1-yl)propyl]-6-{[5-(trifluoromethyl)pyridin-2-yl]oxy}quinoline-2-carboxamide] | 6.10
36 | O=C(c1ccc2cc(Oc3ccc(C(F)(F)F)cn3)ccc2n1)N1CCC(N2CCOCC2)C1 (stereo not drawn) [Example 316, [3-(morpholin-4-yl)pyrrolidin-1-yl](6-{[5-(trifluoromethyl)pyridin-2-yl]oxy}quinolin-2-yl)methanone] | 4.92
